Read-outs that look alike come from different tables or passages of the source.
Experiments:
[1] = tested on: P. aeruginosa; experiment: MIC determination, antibacterial activity in vitro; assay type: cell-based, Pseudomonas aeruginosa; details: for MIC: Pseudomonas aeruginosa, read-out: MIC against P. aeruginosa; for reduced potency / loss of activity vs. P. aeruginosa compared to Example 7: MIC ratio vs Example 7
Text: (§1) The in vitro activity of compounds provided herein may be assessed by standard testing procedures such as the determination of minimum inhibitory concentration (MIC) as described in Approved Standard. Methods for Dilution Antimicrobial Susceptibility Tests for Bacteria that Grow Aerobically, 3rd ed., 1993, published by the National Committee for Clinical Laboratory standards, Villanova, Pa., USA. Low MIC values indicate high antibacterial activity, while high MIC values reveal a reduced antibacterial activity (with higher drug concentration required for pathogen eradication in the latter instance).

[2] = rat PK model of intravenous administration; assay type: in vivo; details: for AUC: in vivo
Text: To further elucidate therapeutic potential of drug compounds, pharmacokinetic (PK) data is used to establish the key parameters predictive of the therapy outcome, such as area under the curve (AUC) for a plot monitoring the change in the systemic drug concentration over time. Thus, a higher AUC value indicates a greater exposure to the drug, commonly associated with a greater therapeutic potential due to a higher amount of drug available to combat the infection in a mammal. In contrast, a lower AUC value indicates a reduced exposure to the drug under study, resulting in a reduced amount of antibiotic available to combat bacterial infestations. To that end, the compounds provided herein have been tested in the rat PK model of intravenous administration performed analogously to methods described in the monograph Current Protocols in Pharmacology, 2005, 7.1.1-7.1.26, John Wiley & Sons, Inc.

[3] = tested on: P. aeruginosa; experiment: P. aeruginosa neutropenic mouse thigh infection model; assay type: in vivo; details: for CFU reduction / CFU reduction, fold: side-by-side test Example 1 vs Example 10, dose not given; for reduction in the bacterial colony-forming units (CFU) / reduction in the bacterial colony-forming units (CFU), fold: 30 mg/kg
Procedure: To establish the efficacy of the compounds provided herein in vivo, testing in a P. aeruginosa neutropenic mouse thigh infection model was performed with subcutaneous administration of test compounds analogously to the method described by Andes et al. in Antimicrobial Agents and Chemotherapy, 2002, 46(11), 3484-3489. In this model, a greater reduction in the bacterial colony-forming units (CFU) indicates more beneficial therapeutic effect (more bacterial eradication), while a lower CFU reduction indicates a lower effect (less bacterial eradication). The in vivo antibacterial effect is also referred to as efficacy, in contrast to the term potency commonly used for in vitro activity (expressed as MIC).

[4] = tested on: K. pneumoniae; experiment: MIC determination, antibacterial activity in vitro; assay type: cell-based, Klebsiela pneumoniae; details: for MIC: Klebsiella pneumoniae, Strain K. pneumoniae KPN1004, read-out: MIC, K. pneumoniae (footnote c)
Text: as §1

[5] = tested on: E. coli; experiment: MIC determination, antibacterial activity in vitro; assay type: cell-based, Escherichia coli; details: MIC ratio vs Example 24
Text: as §1

[6] = tested on: A. baumannii; experiment: MIC determination, antibacterial activity in vitro; assay type: cell-based, Acinetobacter baumannii; details: for MIC: Acinetobacter baumannii, Strain A. baumannii MABA0001, read-out: MIC, A. baumannii (footnote b); for reduced potency / loss of activity vs. A. baumannii compared to Example 7: MIC ratio vs Example 7
Text: as §1

[7] = tested on: Gram-negative pathogens; experiment: Antibacterial activity against Gram-negative pathogens in vitro (overall statements); assay type: cell-based; details: Table 1 pathogens overall
Text: as §1

[8] = intravenous, dose not given, Example 1 vs Example 10, read-out: AUC
[9] = intravenous, 10 mg/kg, read-out: exposure (AUC)
[10] = subcutaneous, side-by-side test Example 3 vs Example 24
[11] = another test, side-by-side Example 3 vs Example 25

For `Cl.NCC1OB2O[C@H](CO)COc3cccc1c32` (stereo partly drawn) [Example 1, ((8R)-2-(Aminomethyl)-7,8-dihydro-2H-1,6,9-trioxa-9a-borabenzo[cd]azulen-8-yl)methanol hydrochloride], which MIC [1] is on record?
The MIC was 2 to 4 mg/L.

And the AUC [2, 8]?
Its AUC is about 11.5 µg·h/mL.

And the “improvement in exposure (AUC) over reference compound of Example 10” value ([2]; intravenous)?
Its value is “more than 2 fold”.

What about the “superiority in the bacterial reduction over Example 10” value ([3]; side-by-side test) of the same molecule?
Its value is 79 fold.

What about the CFU reduction [3] of the same molecule?
Its CFU reduction is “about 3.2 log”.

And the “CFU reduction, fold” value [3]?
The value was “about 1584 fold”.

With `Cl.NC[C@H]1OB2O[C@H](CO)COc3cccc1c32` [Example 3, ((2S,8R)-2-(Aminomethyl)-7,8-dihydro-2H-1,6,9-trioxa-9a-borabenzo[cd]azulen-8-yl)methanol hydrochloride] as the molecule, how does the “improved activity against K. pneumoniae as compared to reference compound of Example 24” value ([4]; MIC ratio vs Example 24) read?
The value was 2 fold.

What about the “improved activity against P. aeruginosa as compared to reference compound of Example 24” value ([1]; MIC ratio vs Example 24) of the same molecule?
The value was 2 fold.

What about the MIC [1] of the same molecule?
Its MIC is 2 to 4 mg/L.

And the AUC [2, 9]?
Its AUC is about 14.1 µg·h/mL.

What about the “improvement in exposure (AUC) over reference compound of Example 24” value ([2]; intravenous, 10 mg/kg) of the same molecule?
The value was 2.7 fold.

What about the “improvement in exposure (AUC) over reference compound of Example 25” value ([2]; intravenous, 10 mg/kg) of the same molecule?
The value was “over 2 fold”.

What about the “higher degree of pathogen reduction compared to reference compound of Example 24” value ([3]; 30 mg/kg both agents) of the same molecule?
Its value is “over 80 fold”.

And the “more efficient in thigh infection model compared to reference compound of Example 25” value ([3]; 30 mg/kg both agents)?
Its value is “about 12 fold”.

What about the “reduction in the bacterial colony-forming units (CFU)” value [3, 10] of the same molecule?
The value was “about 3.6 log”.

And the “reduction in the bacterial colony-forming units (CFU), fold” value (“reduction … (CFU), fold” below) [3, 10]?
The value was “about 3981 fold”.

What about the “reduction in the bacterial colony-forming units (CFU)” value [3, 11] of the same molecule?
The value was “about 3.44 log”.

And the “reduction … (CFU), fold” value [3, 11]?
Its value is “about 2754 fold”.

And the “improved activity against E. coli as compared to reference compound of Example 24” value [5]?
The value was 2 fold.

Which results are given for `Cl.NCC1OB2O[C@@H](CO)COc3cccc1c32` (stereo partly drawn) [Example 4, ((8S)-2-(Aminomethyl)-7,8-dihydro-2H-1,6,9-trioxa-9a-borabenzo[cd]azulen-8-yl)methanol hydrochloride]?
MIC [6]: 4000 mg/L; MIC [4]: 2000 mg/L; MIC [1]: 2 to 4 mg/L

With `Cl.NCC1OB2OC(CO)COc3cccc1c32` (stereo not drawn) [Example 7] as the molecule, how does the MIC [6] read?
Its MIC is 4000 mg/L.

And the MIC [4]?
Its MIC is 4000 mg/L.

And the MIC [1]?
Its MIC is 2 to 4 mg/L.

With `Cl.NCC1OB2OCC(CO)Oc3cccc1c32` (stereo not drawn) [Example 11, (2-(Aminomethyl)-7,8-dihydro-2H-1,6,9-trioxa-9a-borabenzo[cd]azulen-7-yl)methanol hydrochloride] as the molecule, how does the “reduced potency / loss of activity vs. A. baumannii compared to Example 7” value [6] read?
The value was 4 fold.

And the “reduced potency / loss of activity vs. P. aeruginosa compared to Example 7” value [1]?
Its value is 4 fold.

Which “activity vs. A. baumannii in words” value ([6]; compared to Example 7) does the source give for `Cl.NCC1OB2OC(CCO)COc3cccc1c32` (stereo not drawn) [Example 12, 2-(2-(Aminomethyl)-7,8-dihydro-2H-1,6,9-trioxa-9a-borabenzo[cd]azulen-8-yl)ethanol hydrochloride] here?
Its value is “total loss of activity”.

What about the “reduced potency / loss of activity vs. P. aeruginosa compared to Example 7” value [1] of the same molecule?
Its value is 4 fold.

For `CC1(CO)COc2cccc3c2B(OC3CN)O1.Cl` (stereo not drawn) [Example 13, (2-(Aminomethyl)-8-methyl-7,8-dihydro-2H-1,6,9-trioxa-9a-borabenzo[cd]azulen-8-yl)methanol hydrochloride], which “reduced potency / loss of activity vs. A. baumannii compared to Example 7” value [6] is on record?
The value was “about 4 fold”.

For `CC(O)C1COc2cccc3c2B(OC3CN)O1.Cl` (stereo not drawn) [Example 14, 1-(2-(Aminomethyl)-7,8-dihydro-2H-1,6,9-trioxa-9a-borabenzo[cd]azulen-8-yl)ethanol hydrochloride], which “reduced potency / loss of activity vs. A. baumannii compared to Example 7” value [6] is on record?
The value was “about 4 fold”.

With `Cl.NC[C@H]1OB2O[C@H](CO)COc3c(F)ccc1c32` [Example 18, ((2S,8R)-2-(Aminomethyl)-5-fluoro-7,8-dihydro-2H-1,6,9-trioxa-9a-borabenzo[cd]azulen-8-yl)methanol hydrochloride] as the molecule, how does the “antibacterial activity (potency) in words” value (from here on “antibacterial activity”) [7] read?
The value was “reduced activity”.

What does the source list for `Cl.NCC1OB(O)c2c(OCCCO)cccc21` (stereo not drawn) [Reference Example 10, 3-(Aminomethyl)-7-(3-hydroxypropoxy)benzo[c][1,2]oxaborol-1(3H)-ol hydrochloride, reference compound]?
MIC [1]: 8 mg/L; AUC [2, 8]: ~5.37 µg·h/mL; CFU reduction [3]: about 1.3 log; CFU reduction, fold [3]: about 20 fold

For `Cl.NCC1OB(O)c2c(OCC[C@H](O)CO)cccc21` (stereo partly drawn) [compound 22, (2S)-4-((3-(Aminomethyl)-1-hydroxy-1,3-dihydrobenzo[c][1,2]oxaborol-7-yl)oxy)butane-1,2-diol hydrochloride], which “antibacterial activity” value [7] is on record?
Its value is “essentially inactive”.

For `Cl.NCC1OB(O)c2c(OCC(CO)CO)cccc21` (stereo not drawn) [compound 23, 2-(((3-(Aminomethyl)-1-hydroxy-1,3-dihydrobenzo[c][1,2]oxaborol-7-yl)oxy)methyl)propane-1,3-diol hydrochloride], which “antibacterial activity” value [7] is on record?
Its value is “essentially inactive”.

For `Cl.NCC1OB2OCCOc3cccc1c32` (stereo not drawn) [compound 24, (7,8-Dihydro-2H-1,6,9-trioxa-9a-borabenzo[cd]azulen-2-yl)methanamine hydrochloride, reference compound], which AUC [2, 9] is on record?
The AUC was about 5.3 µg·h/mL.

And the “reduction in the bacterial colony-forming units (CFU)” value [3, 10]?
Its value is “about 1.7 log”.

And the “reduction … (CFU), fold” value [3, 10]?
The value was “about 50 fold”.

Which “antibacterial activity” value [7] does the source give for `Cl.NC[C@H]1OB(O)c2c(OCCCO)cccc21` [compound 25, (S)-3-(Aminomethyl)-7-(3-hydroxypropoxy)benzo[c][1,2]oxaborol-1(3H)-ol hydrochloride, reference compound] here?
Its value is “active”.

And the AUC ([2]; iv, 10 mg/kg)?
Its AUC is about 6.24 µg·h/mL.

What about the “reduction in the bacterial colony-forming units (CFU)” value [3, 11] of the same molecule?
Its value is “about 2.37 log”.

What about the “reduction … (CFU), fold” value [3, 11] of the same molecule?
The value was “about 234 fold”.

Reference: patent publication US8530452B2, “Tricyclic boron compounds for antimicrobial therapy” (Micurx Pharmaceuticals, Inc., priority 2011, dated 2013)
